Laboratory results from publication PMC6478823, “A suite of phenotypic assays to ensure pipeline diversity when prioritizing drug-like Cryptosporidium growth inhibitors” (Nature Communications, 2019).
Read-outs that look alike come from different tables or passages of the source.

Experiments:
C. parvum [1] = experiment: Egress, motility, reinvasion assay (PV ratio); details: compound at EC90; for Egress and Reinvasion Assay: Mean PV ratios (19.5h:6h), Average: average of replicates; for Egress and Reinvasion Assay: Mean PV ratios (19.5h:6h), Replicate 1a: single replicate 1; for Egress and Reinvasion Assay: Mean PV ratios (19.5h:6h), Replicate 2a: single replicate 2; for Egress and Reinvasion Assay: Mean PV ratios (19.5h:6h), Replicate 3a: single replicate 3; for Egress and Reinvasion Assay: Mean PV ratios (19.5h:6h), Replicate 4a: single replicate 4
Protocol: For quantification of parasitophorous vacuoles over time, HCT-8 cells were grown to greater than 90% confluence in 384-well plates and infected with 11,000 oocysts after triggering excystation.

C. parvum [2] = experiment: 48 h Cryptosporidium growth inhibition assay; format: cell-based, Cryptosporidium parvum; details: compound added 3 h post-infection, read at 48 h
From the text: As a first step in developing specific Cryptosporidium mode of action assays, we conducted a series of light microscopy time-lapse and transmission electron microscopy (TEM) time course experiments in order to precisely define C. parvum development within the HCT-8 cell culture system. […] This synchronicity was exploited by modifying a previously developed high-content microscopy assay. These assay modifications enabled the evaluation of several key events within the life cycle: host cell invasion, intracellular replication, host cell egress and establishment of new parasitophorous vacuoles, and sexual differentiation. […] Since the methods all used automated liquid handling, imaging, and image analysis, the assay methods all incorporated nuclear staining to monitor host cell numbers and enable recognition of HCT-8 cell monolayer damage, for example as an artifact from a malfunctioning plate washer or from unanticipated cytotoxicity of the compounds.
Human ileocecal adenocarcinoma (HCT-8) cells were purchased from ATCC (catalog# CCL-244) and cultured in ATCC modified RPMI-1640 medium (Gibco, catalog# A10491–01), supplemented with 10% heat-inactivated fetal bovine serum (Sigma-Aldrich, catalog# 12306C) and 120 U/mL penicillin and 120 μg/mL streptomycin (Gibco, catalog# 15140-122) (culture media). […] For all experiments, HCT-8 cells between passages 9 and 39 were used. C. parvum (Iowa isolate) oocysts were purchased from Bunchgrass Farm (Deary, ID), stored at 4 °C and used within 5 months of collection from an infected calf. To induce excystation, oocysts were first treated with 10 mM hydrochloric acid for 10 min at 37 °C, spun at 14,000×g for 4.5 min at room temperature, treated with 2 mM sodium taurocholate for 10 min at 16 °C, spun as before, and resuspended in culture media for infection.
A modification of a previously reported immunofluorescence assay was used to determine the EC50 and EC90 of compounds[13]. HCT-8 cells were grown to ≥ 90% confluence in 384-well plates (Corning, catalog# 353962) and infected with 5500 oocysts per well after they were induced for excystation as described above. Different concentrations of compounds were added 3 h post-infection and plates were incubated for another 45 h in a 5% CO2 incubator at 37 °C. Wells were then washed 3 times with PBS containing 111 mM D-galactose (PBS-D-gal), fixed with 4% paraformaldehyde (PFA) in PBS for 15 min at room temperature, permeabilized with 0.25% Triton X-100 for 10 min at 37 °C, washed 3 times with PBS with 0.1% Tween 20, and blocked with 4% bovine serum albumin (BSA) in PBS for 2 h at 37 °C or 4 °C overnight. Parasitophorous vacuoles were stained with 1.33 µg/mL of fluorescein-labeled Vicia villosa lectin (Vector Laboratories, catalog# FL-1231) diluted in 1% BSA in PBS with 0.1% Tween 20 for 1 h at 37 °C, followed by addition of Hoechst 33258 (AnaSpec, catalog# AS-83219) at 0.09 mM diluted in water for another 15 min at 37 °C. Wells were then washed 5 times with PBS containing 0.1% Tween 20. A Nikon Eclipse Ti2000 epifluorescence microscope with an automated stage was programmed using NIS-Elements Advanced Research software (Nikon, USA) to focus on the center of each well and take a 3 × 3 or 6 × 6 composite image using an EXi blue fluorescence microscopy camera (QImaging, Canada) with a 20 × objective (NA = 0.45). Nuclei and parasite images were separately exported as.tif files and analyzed using macros developed on the ImageJ platform (National Institutes of Health)[13].

C. parvum [3] = format: cell-based, Cryptosporidium parvum; details: compound at EC90; for Invasion Assay: Mean % Inhibition (parasites), Average: average of replicates; for Invasion Assay: Mean % Inhibition (parasites), Replicate 1a: single biological replicate 1; for Invasion Assay: Mean % Inhibition (parasites), Replicate 2a: single biological replicate 2; for Sporozoite invasion: yes/no grouping by phenotypic assay result
Protocol: The first step in infection is host cell invasion, which involves a complex process encompassing oocyst excystation, parasite motility, adhesion, and parasitophorous vacuole formation (Fig. 2a). Our strategy to assay for compounds affecting invasion was simply to expose C. parvum to compounds immediately after triggering excystation and throughout the invasion process, and then enumerate the parasite vacuoles after 3 h, prior to allowing the parasites to replicate (summarized in Fig. 2b).
Fig. 2 Invasion Assay. a Overview of life cycle stage investigated during the invasion assay. Representative TEM images of a C. parvum oocyst and HCT-8 cell shortly after infection (Scale bar = 500 nm). b Schematic of experimental design. […] Each point represents the mean and SD of at least two biological replicates with four technical replicates per experiment.
C. parvum invasion inhibition was measured by modifying the 48 h growth inhibition assay described above. […] In parallel, Iowa strain oocysts were excysted. […] Assay plates were incubated at 37 °C and 5% CO2 for 3 h.

[4] = read-out: Regular 3 to 48 h assay in vitro EC90, C. parvum in HCT-8 cells
[5] = Cryptosporidium parvum, HCT-8, read-out: Regular 3 to 48 h assay in vitro EC90, C. parvum in HCT-8 cells

Compound | Egress and Reinvasion Assay: Mean PV ratios (19.5h:6h), Average (C. parvum [1]) | Egress and Reinvasion Assay: Mean PV ratios (19.5h:6h), Replicate 1a (C. parvum [1]) | Egress and Reinvasion Assay: Mean PV ratios (19.5h:6h), Replicate 2a (C. parvum [1]) | EC90 (C. parvum [2]; [4]) [µM] | Invasion Assay: Mean % Inhibition (parasites), Average (C. parvum [3]) [%] | Invasion Assay: Mean % Inhibition (parasites), Replicate 1a (C. parvum [3]) [%] | Invasion Assay: Mean % Inhibition (parasites), Replicate 2a (C. parvum [3]) [%] | Sporozoite invasion (C. parvum [3]) | EC90 (C. parvum [2]; Cryptosporidium parvum, read-out: Regular 3 to 48 h assay in vitro EC90, C. parvum in HCT-8 cells) [µM] | Egress and Reinvasion Assay: Mean PV ratios (19.5h:6h), Replicate 3a (C. parvum [1]) | Egress and Reinvasion Assay: Mean PV ratios (19.5h:6h), Replicate 4a (C. parvum [1]) | EC90 (C. parvum [2]; [5]) [µM] | Invasion Assay: Mean % Inhibition (parasites), Replicate 3a (C. parvum [3]; single biological replicate 3) [%] | Invasion Assay: Mean % Inhibition (parasites), Replicate 4a (C. parvum [3]; single biological replicate 4) [%] | effect on host cell invasion / parasitophorous vacuole formation (C. parvum [3]; result in words)
c1ccc(CNc2nc(NCc3ccccc3)c3ccccc3n2)cc1 [B-23] | 1.55 | 1.73 | 1.36 | 10.8 | 83.80 | 84 | 83 | yes |  |  |  |  |  |  | 
O=c1[nH]c(=O)n([C@H]2C[C@H](O)[C@@H](CO)O2)cc1F [Floxuridine] | 0.74 | 0.67 | 0.80 |  | -28.03 | -30 | -26 | no | 0.14 |  |  |  |  |  | 
CCOc1ccc2cc(-c3nn(CC4CCN(C)CC4)c4ncnc(N)c34)ccc2n1 [BKI-1369] | 1.41 | 1.20 | 1.62 | 17.7 | -7.94 | -5 | -11 |  |  |  |  |  |  |  | 
O=C(NC(c1ccccc1)c1ccc2cccnc2c1O)c1ccccc1 (stereo not drawn) [A-5] | 0.32 | 0.55 | 0.10 | 4.35 | -13.46 | -13 | -14 | no |  |  |  |  |  |  | 
CC(C)/N=c1\cc2n(-c3ccc(Cl)cc3)c3ccccc3nc-2cc1Nc1ccc(Cl)cc1 [Clofazimine] | 0.77 | 1.03 | 1.03 |  | 66.45 | 65 | 68 |  |  | 0.51 | 0.49 | 19.6 |  |  | 
CCC(C)n1ncn(-c2ccc(N3CCN(c4ccc(OCC5COC(Cn6cncn6)(c6ccc(Cl)cc6Cl)O5)cc4)CC3)cc2)c1=O (stereo not drawn) [Itraconazole] | 1.77 | 2.21 | 1.33 |  | -29.72 | -31 | -28 |  |  |  |  | 7.24 |  |  | 
Cc1cc(/C=C/c2ccc3cc(N(C)C)ccc3[n+]2C)c(C)n1-c1ccccc1 [Pyrvinium pamoate] | 0.61 | 0.97 | 0.85 |  | 25.69 | 30 | 22 |  |  | 0.33 | 0.30 | 3.21 |  |  | 
O=C(CC1NCCCC1O)Cn1cnc2cc(Br)c(Cl)cc2c1=O (stereo not drawn) [Halofuginone] | 0.69 | 0.76 | 1.01 |  | 6.92 | 11 | 2.47 |  |  | 0.53 | 0.46 | 0.34 |  |  | 
Cc1cccc(-n2ncc3c(O)nc(-n4nc(C)cc4NC(=O)c4cc5ccccc5o4)nc32)c1 [C-1] | 0.80 | 0.80 | 1.08 | 0.65 | -10.80 | -29 | -22 |  |  | 0.56 | 0.76 |  | 9 | -0.416 | 
NC[C@@H]1O[C@H](O[C@H]2[C@@H](O)[C@H](O[C@@H]3[C@@H](O)[C@H](N)C[C@H](N)[C@H]3O[C@H]3O[C@H](CO)[C@@H](O)[C@H](O)[C@H]3N)O[C@@H]2CO)[C@H](N)[C@@H](O)[C@@H]1O [Paromomycin] | 2.15 | 2.19 | 2.11 |  | -28.42 | -32 | -25 |  |  |  |  | 2390 |  |  | no significant effect on parasitophorous vacuole formation
